From US10940139B2, “Compounds that interact with the Ras superfamily for the treatment of cancers, inflammatory diseases, rasopathies, and fibrotic disease” (Shy Therapeutics LLC, priority 2017, dated 2021)

What was measured:
[1] = system: TNFα production in RAW 264.7 macrophage cell line; assay: Mouse TNF alpha quantification assay (LPS-stimulated macrophages, ELISA); assay type: cell-based; details: RAW264.7, RAW 264.7 murine leukemia virus transformed macrophage cell lines, LPS stimulation, read-out: TNF-α % Inhibition at 30 μM
[2] = system: IL6 production in RAW 264.7 macrophage cell line; assay: Mouse IL6 quantification assay (LPS-stimulated macrophages, ELISA); assay type: cell-based; details: RAW264.7, RAW 264.7 murine leukemia virus transformed macrophage cell lines, LPS stimulation, read-out: IL-6 % Inhibition at 30 μM

Compound	inhibition at 30 µM [1]	inhibition at 30 µM [2]
O=C(c1csc2c(O)nc(-c3ccccn3)nc12)N1CCC(N2CCOCC2)CC1 [drawing 2105]	0%	1 to 25%
O=C(c1csc2c(O)nc(-c3ccccn3)nc12)N1CCC(N2CCCC2=O)CC1 [drawing 2106]	26 to 50%	1 to 25%
O=C(c1csc2c(O)nc(-c3ccccn3)nc12)N1CCN(c2ccncc2)CC1 [drawing 2108]	0%	1 to 25%
O=C(c1csc2c(O)nc(-c3ccccn3)nc12)N1CCC(c2cccnc2)CC1 [drawing 2109]	1 to 25%	76 to 100%
CC1(O)CCN(C(=O)c2csc3c(O)nc(-c4ccccn4)nc23)CC1 [drawing 2110]	0%	51 to 75%
CC1(N)CCN(C(=O)c2csc3c(O)nc(-c4ccccn4)nc23)CC1 [drawing 2111]	0%	1 to 25%
CCOC(=O)NC1CCN(C(=O)c2csc3c(O)nc(-c4ccccn4)nc23)CC1 [drawing 2112]	0%	51 to 75%
COCCOCCN(C)C(=O)c1csc2c(O)nc(-c3ccccn3)nc12 [drawing 2113]	0%	26 to 50%
CN(CCc1ccncc1)C(=O)c1csc2c(O)nc(-c3ccccn3)nc12 [drawing 2114]	0%	51 to 75%
O=C(NCCc1cccnc1)c1csc2c(O)nc(-c3ccccn3)nc12 [drawing 2115]	0%	26 to 50%
O=C(c1csc2c(O)nc(-c3ccccn3)nc12)N1CCc2ccccc2CC1 [drawing 2116]	0%	51 to 75%
COc1cc2c(cc1OC)CCN(C(=O)c1csc3c(O)nc(-c4ccccn4)nc13)CC2 [drawing 2117]	1 to 25%	26 to 50%
Nc1nc(O)c2scc(-c3ccccc3)c2n1 [drawing 2118]	0%	1 to 25%
Nc1nc(O)c2scc(-c3ccccc3Cl)c2n1 [drawing 2119]	0%	26 to 50%
Oc1nc(-c2ccccn2)nc2c(-c3ccccc3)csc12 [drawing 2120]	51 to 75%	76 to 100%
Oc1nc(-c2ccccn2)nc2c(-c3ccccc3Cl)csc12 [drawing 2121]	76 to 100%	76 to 100%
Oc1nc(-c2ccccn2)nc2[nH]cnc12 [drawing 2122]	76 to 100%	76 to 100%
Oc1nc(-c2ccccn2)nc2c1ncn2-c1ccccc1 [drawing 2123]	0%	1 to 25%
Oc1nc(-c2ccccn2)nc2c1ncn2-c1ccccn1 [drawing 2124]	0%	26 to 50%
N#Cc1ccc(CC(=O)Nc2ccnc(-c3ccccn3)n2)cc1 [drawing 2125]	1 to 25%	1 to 25%
Brc1csc2nc(-c3ccccn3)nc(N3CCOCC3)c12 [drawing 2126]	0%	51 to 75%
c1ccc(-c2nc(N3CCOCC3)c3ccsc3n2)nc1 [drawing 2127]	1 to 25%	1 to 25%

Compound	inhibition at 30 µM [1]	inhibition at 30 µM [2]
Oc1nc(-c2ccccn2)nc2scc(Br)c12 [drawing 2128]	76 to 100%	76 to 100%
c1ccc(-c2nc(NCC3CCCO3)c3ccsc3n2)nc1 (centres unmarked) [drawing 2129]	1 to 25%	51 to 75%
CCN(CC)CCC(C)Nc1nc(-c2ccccn2)nc2sccc12 (centres unmarked) [drawing 2130]	0%	1 to 25%
O=C1CN(c2nc(-c3ccccn3)nc3scc(-c4ccccc4)c23)CCN1CCO [drawing 2131]	1 to 25%	1 to 25%
N#Cc1ncn(-c2nc(-c3ccccn3)nc3sc(-c4ccccc4)cc23)n1 [drawing 2132]	76 to 100%	76 to 100%
Cc1nnc(C(Nc2nc(-c3ccccn3)nc3scc(-c4ccccc4)c23)c2ccccc2)n1C (centres unmarked) [drawing 2133]	76 to 100%	76 to 100%
Cc1sc2nc(-c3ccccn3)nc(NCCc3nccn3C)c2c1-c1ccccc1 [drawing 2134]	0%	1 to 25%
CCCNC(=O)CN1CCN(c2nc(-c3ccccn3)nc3sc(-c4ccccc4)cc23)CC1 [drawing 2135]	76 to 100%	76 to 100%
CC(Nc1nc(-c2ccccn2)nc2scc(-c3ccccc3)c12)c1nncn1C (centres unmarked) [drawing 2138]	1 to 25%	1 to 25%
c1ccc(-c2csc3nc(-c4ccccn4)nc(N4CCN(Cc5cccnc5)CC4)c23)cc1 [drawing 2139]	51 to 75%	76 to 100%
c1ccc(-c2csc3nc(-c4ccccn4)nc(N4CCN(CC5CCCO5)CC4)c23)cc1 (centres unmarked) [drawing 2140]	26 to 50%	51 to 75%
CN(Cc1cnn(C)c1)c1nc(-c2ccccn2)nc2scc(-c3ccccc3)c12 [drawing 2141]	26 to 50%	76 to 100%
CN(CCCc1n[nH]c(N)c1C#N)c1nc(-c2ccccn2)nc2sc(-c3ccccc3)cc12 [drawing 2142]	51 to 75%	76 to 100%
O=C(CN1CCN(c2nc(-c3ccccn3)nc3sc(-c4ccccc4)cc23)CC1)N1CCCC1 [drawing 2143]	76 to 100%	76 to 100%
CNC(=O)CN1CCN(c2nc(-c3ccccn3)nc3scc(-c4ccccc4)c23)CC1 [drawing 2144]	1 to 25%	1 to 25%
O=S1(=O)CCC(N2CCN(c3nc(-c4ccccn4)nc4scc(-c5ccccc5)c34)CC2)C1 (centres unmarked) [drawing 2145]	1 to 25%	1 to 25%
CON(C)c1nc(-c2ccccn2)nc2scc(-c3ccccc3)c12 [drawing 2147]	1 to 25%	26 to 50%
O=C(CN1CCN(c2nc(-c3ccccn3)nc3scc(-c4ccccc4)c23)CC1)N1CCCCC1 [drawing 2148]	1 to 25%	26 to 50%
O=C(CNc1nc(-c2ccccn2)nc2scc(-c3ccccc3)c12)NC1CC1 [drawing 2149]	26 to 50%	26 to 50%
CCN(CC)C(=O)CN1CCN(c2nc(-c3ccccn3)nc3scc(-c4ccccc4)c23)CC1 [drawing 2150]	51 to 75%	76 to 100%
CC(C)CNC(=O)CN1CCN(c2nc(-c3ccccn3)nc3scc(-c4ccccc4)c23)CC1 [drawing 2151]	26 to 50%	76 to 100%
O=S1(=O)CCC(Nc2nc(-c3ccccn3)nc3scc(-c4ccccc4)c23)C1 (centres unmarked) [drawing 2152]	0%	1 to 25%

Compound	inhibition at 30 µM [1]	inhibition at 30 µM [2]
c1ccc(-c2csc3nc(-c4ccccn4)nc(N4CCN(CCN5CCCC5)CC4)c23)cc1 [drawing 2153]	0%	26 to 50%
OC1CCCN(c2nc(-c3ccccn3)nc3scc(-c4ccccc4)c23)C1 (centres unmarked) [drawing 2154]	1 to 25%	26 to 50%
c1ccc(-c2csc3nc(-c4ccccn4)nc(N4CCOCC4)c23)cc1 [drawing 2155]	1 to 25%	1 to 25%
OC1CCN(c2nc(-c3ccccn3)nc3scc(-c4ccccc4)c23)CC1 [drawing 2156]	1 to 25%	26 to 50%
O=C(CN1CCN(c2nc(-c3ccccn3)nc3scc(-c4ccccc4)c23)CC1)N1CCCC1 [drawing 2157]	1 to 25%	1 to 25%
O=C(CN1CCN(c2nc(-c3ccccn3)nc3scc(-c4ccccc4)c23)CC1)NC1CC1 [drawing 2158]	26 to 50%	76 to 100%
c1ccc(-c2csc3nc(-c4ccccn4)nc(NN4CCOCC4)c23)cc1 [drawing 2159]	26 to 50%	51 to 75%
NC(=O)C1CCCN(c2nc(-c3ccccn3)nc3scc(-c4ccccc4)c23)C1 (centres unmarked) [drawing 2160]	1 to 25%	1 to 25%
COCCNc1nc(-c2ccccn2)nc2scc(-c3ccccc3)c12 [drawing 2161]	76 to 100%	76 to 100%
CC(=O)N1CCN(c2nc(-c3ccccn3)nc3scc(-c4ccccc4)c23)CC1 [drawing 2162]	26 to 50%	26 to 50%
O=C1CCN(c2nc(-c3ccccn3)nc3scc(-c4ccccc4)c23)CC1 [drawing 2163]	1 to 25%	1 to 25%
NC(=O)C1CCN(c2nc(-c3ccccn3)nc3scc(-c4ccccc4)c23)CC1 [drawing 2164]	1 to 25%	1 to 25%
Cc1sc2nc(N)nc(O)c2c1C [drawing 2165]	1 to 25%	1 to 25%
COc1ccnc(-c2nc(O)c3ccsc3n2)c1 [drawing 2166]	1 to 25%	1 to 25%
COc1cccc(N2CCN(C(=O)c3csc4c(O)nc(-c5ccccn5)nc34)CC2)c1 [drawing 2167]	0%	26 to 50%
Cc1ccccc1N1CCN(C(=O)c2csc3c(O)nc(-c4ccccn4)nc23)CC1 [drawing 2168]	1 to 25%	51 to 75%
O=C(c1csc2c(O)nc(-c3ccccn3)nc12)N1CCN(Cc2cccc(O)c2)CC1 [drawing 2169]	1 to 25%	26 to 50%
O=C(c1csc2c(O)nc(-c3ccccn3)nc12)N1CCOC(c2cccc(F)c2)C1 (centres unmarked) [drawing 2170]	1 to 25%	26 to 50%
O=C(c1csc2c(O)nc(-c3ccccn3)nc12)N1CCOC(c2nccs2)C1 (centres unmarked) [drawing 2171]	1 to 25%	51 to 75%
COc1ccnc(-c2nc(O)c3c(Br)csc3n2)c1 [drawing 2172]	26 to 50%	76 to 100%
